target: T1, memapsin 2 (Cricetulus griseus, UniProt G3IAK4); test: Cellular Aβ IC50 determination (Aβ40 sandwich ELISA); format: cell-based; details: Chinese hamster ovary cells over-expressing human APP695 with London and Swedish mutations, 24 h
T1 construct: endogenous in cells; host or cells: Chinese hamster ovary cells over-expressing human APP695 (London + Swedish)
Protocol: The potency of compounds against memapsin 2 activity was determined in a cellular assay of Aβ production. […] Chinese hamster ovary cells that over-express human APP695 with the London and Swedish mutations were seeded in multi-well plates at 10% confluency. Compounds were dissolved in DMSO to concentrations near 1 mM, and diluted into culture media to a final concentration near 4 μM (final 0.4% DMSO). Compounds were diluted serially and applied to cells in multi-well plates 48 h after seeding. Incubation was continued in 5% CO2 at 37 degrees C. for 24 h. Aliquots were removed and assayed for Aβ40 content using a sandwich ELISA (BioSource International). Amount of Aβ40 over the range of concentration of compounds, relative to control incubations, were fit to a 4-parameter IC50 model.

T1 sequence (G3IAK4 22-501): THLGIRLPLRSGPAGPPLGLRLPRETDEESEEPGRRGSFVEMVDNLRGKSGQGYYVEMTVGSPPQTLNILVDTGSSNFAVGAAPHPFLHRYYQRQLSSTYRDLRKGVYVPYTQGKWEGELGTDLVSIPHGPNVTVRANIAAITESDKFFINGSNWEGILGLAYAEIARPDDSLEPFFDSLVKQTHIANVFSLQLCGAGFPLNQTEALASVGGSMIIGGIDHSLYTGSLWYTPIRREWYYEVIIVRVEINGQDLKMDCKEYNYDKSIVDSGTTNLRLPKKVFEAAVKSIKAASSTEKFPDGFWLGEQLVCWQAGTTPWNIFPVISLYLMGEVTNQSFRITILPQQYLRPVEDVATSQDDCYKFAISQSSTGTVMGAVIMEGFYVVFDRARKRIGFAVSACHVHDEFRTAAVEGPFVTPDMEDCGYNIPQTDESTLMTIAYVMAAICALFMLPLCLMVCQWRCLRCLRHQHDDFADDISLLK

Compound | IC50
CCC(Cn1nc(C)cc1C)C(=O)NC(CNC(=O)OCCF)C(=O)NC(CC(C)C)C(O)CC(C)C(=O)NC(C(=O)NCC(C)C)C(C)C (stereo not shown) [2-fluoroethyl 2-(2-((3,5-dimethyl-1H-pyrazol-1-yl)methyl)butanamido)-3-(5-hydroxy-8-(1-(isobutylamino)-3-methyl-1-oxobutan-2-ylamino)-2,7-dimethyl-8-oxooctan-4-ylamino)-3-oxopropylcarbamate] | 6 to 100 µM
Cc1csc(CC(C)C(=O)NC(CN(C)S(C)(=O)=O)C(=O)NC(CC(C)C)C(O)CC(C)C(=O)NC(C(=O)NCC(C)C)C(C)C)n1 (stereo not shown) [4-hydroxy-N-(1-(isobutylamino)-3-methyl-1-oxobutan-2-yl)-2,7-dimethyl-5-(2-(2-methyl-3-(4-methylthiazol-2-yl)propanamido)-3-(N-methylmethylsulfonamido)propanamido)octanamide] | 6 to 100 µM
COC(Cn1nc(C)cc1C)C(=O)NC(CNC(=O)OC(C)(C)C)C(=O)NC(CC(C)C)C(O)CC(C)C(=O)NC(C(=O)NCC(C)C)C(C)C (stereo not shown) [tert-butyl 2-(3-(3,5-dimethyl-1H-pyrazol-1-yl)-2-methoxypropanamido)-3-(5-hydroxy-8-(1-(isobutylamino)-3-methyl-1-oxobutan-2-ylamino)-2,7-dimethyl-8-oxooctan-4-ylamino)-3-oxopropylcarbamate] | > 100 µM
Cc1csc(COC(=O)N[C@@H](CNC(=O)O[C@H]2CCOC2)C(=O)N[C@@H](CC(C)C)[C@@H](O)C[C@@H](C)C(=O)N[C@H](C(=O)NCC(C)C)C(C)C)n1 | 6 to 100 µM
Cc1nc(CC(C)C(=O)NC(CNC(=O)OC(C)(C)C)C(=O)NC(CC(C)C)C(O)CC(C)C(=O)NC(C(=O)NCC(C)C)C(C)C)c(C)o1 (stereo not shown) [tert-butyl 2-(3-(2,5-dimethyloxazol-4-yl)-2-methylpropanamido)-3-(5-hydroxy-8-(1-(isobutylamino)-3-methyl-1-oxobutan-2-ylamino)-2,7-dimethyl-8-oxooctan-4-ylamino)-3-oxopropylcarbamate] | < 6 µM
CC(=O)NCC(NC(=O)C(C)Cc1nc(C)cs1)C(=O)NC(CC(C)C)C(O)CC(C)C(=O)NC(C(=O)NCC(C)C)C(C)C (stereo not shown) [5-(3-acetamido-2-(2-methyl-3-(4-methylthiazol-2-yl)propanamido)propanamido)-4-hydroxy-N-(1-(isobutylamino)-3-methyl-1-oxobutan-2-yl)-2,7-dimethyloctanamide] | 6 to 100 µM
CCC(Cn1nc(C)cc1C)C(=O)NC(CNC(=O)OC(C)(C)C)C(=O)NC(CC(C)C)C(O)CC(C)C(=O)NC(C(=O)NCc1ccccn1)C(C)C (stereo not shown) [tert-butyl 2-(2-((3,5-dimethyl-1H-pyrazol-1-yl)methyl)butanamido)-3-(5-hydroxy-2,7-dimethyl-8-(3-methyl-1-oxo-1-(pyridin-2-ylmethylamino)butan-2-ylamino)-8-oxooctan-4-ylamino)-3-oxopropylcarbamate] | 6 to 100 µM

Continued, values first:

IC50 | Compound
< 6 µM | Cc1csc(CC(C)C(=O)NC(CNC(=O)OC(C)(C)C)C(=O)NC(CC(C)C)C(O)CC(C)C(=O)NC(C(=O)NN(C)C)C(C)C)n1 (stereo not shown) [tert-butyl 3-(8-(1-(2,2-dimethylhydrazinyl)-3-methyl-1-oxobutan-2-ylamino)-5-hydroxy-2,7-dimethyl-8-oxooctan-4-ylamino)-2-(2-methyl-3-(4-methylthiazol-2-yl)propanamido)-3-oxopropylcarbamate]
< 6 µM | CCC(Cn1nc(C)cc1C)C(=O)NC(CNC(=O)OC(C)(C)C)C(=O)NC(CC(C)C)C(O)CC(C)C(=O)NC(C(=O)NCC(C)C)C(C)C (stereo not shown) [tert-butyl 2-(2-((3,5-dimethyl-1H-pyrazol-1-yl)methyl)butanamido)-3-(5-hydroxy-8-(1-(isobutylamino)-3-methyl-1-oxobutan-2-ylamino)-2,7-dimethyl-8-oxooctan-4-ylamino)-3-oxopropylcarbamate]
< 6 µM | CCC(Cc1nc(C)cs1)C(=O)NC(CNC(=O)OC(C)C)C(=O)NC(CC(C)C)C(O)CC(C)C(=O)NC(C(=O)NCC(C)C)C(C)C (stereo not shown) [isopropyl 3-(5-hydroxy-8-(1-(isobutylamino)-3-methyl-1-oxobutan-2-ylamino)-2,7-dimethyl-8-oxooctan-4-ylamino)-2-(2-((4-methylthiazol-2-yl)methyl)butanamido)-3-oxopropylcarbamate]

From patent publication US20080125467A1, “Amino-Containing Compounds Which Inhibit Memapsin 2 Beta-Secretase Activity and Methods of Use Thereof” (priority 2004, published 2008)
